Experimental data taken from US20260083865A1, “PROSTATE SPECIFIC MEMBRANE ANTIGEN (PSMA) LIGANDS AND USE THEREOF” (priority 2022, published 2026).
Where two headings read alike, the source gives them in different places. Numbered stars: 1 amine (or outer) side, 2 acyl side, 3 side chain; on linkers, the order of the positions; unused ones are H or OH. Bridge positions count the residues as written; N and C are the ends. Square brackets hold non-standard residues; d marks the D form. Peptide text beside a SMILES is read from it. * marks the point of attachment. X3 = O=C(O)CN1CCN(CC(=O)O)CCN(CC(=O)NCCCOCCOCCOCCCN*)CCN(CC(=O)O)CC1; DOTA = O=C(O)CN1CCN(CC(=O)O)CCN(CC(=O)*)CCN(CC(=O)O)CC1; Trp(5-Br) = N[C@@H](Cc1c[nH]c2ccc(Br)cc12)C(=O)O; Phe(4-Cl) = N[C@@H](Cc1ccc(Cl)cc1)C(=O)O; Arg(Me) = CNC(=N)NCCC[C@H](N)C(=O)O; X1 = O=C(CC1CCN([*:1])CC1)[*:2]; Lys(Me) = CNCCCC[C@H](N)C(=O)O; Suc = O=C(CCC(=O)[*:2])[*:1]; Tle = CC(C)(C)[C@H](N)C(=O)O; Pyridin(2-yl) = c1ccc(*)nc1; Isovaleryl = CC(C)CC(=O)*; Nle = CCCC[C@H](N)C(=O)O; Orn = NCCC[C@H](N)C(=O)O; Aib = CC(C)(N)C(=O)O; CO = O=C([*:1])[*:2]; Guanidino = N=C(N)N*; βAla = NCCC(=O)O; NHBu = CCCCN*

Columns and labels:
[1] = target: T1, PSMA-expressing C4-2 cells (Homo sapiens, UniProt Q04609); experiment: FACS binding assay (competition with 50 nM PSM-0183); conditions: C4-2 cells, read-out: pIC50 [C4-2] CAT (converted)
T1 construct: PSMA-expressing C4-2 cells (ATCC, Cat. No. CRL-3314) were cultured in RPMI-1640; host or cells: C4-2 cells
T1 sequence (Q04609 whole entry): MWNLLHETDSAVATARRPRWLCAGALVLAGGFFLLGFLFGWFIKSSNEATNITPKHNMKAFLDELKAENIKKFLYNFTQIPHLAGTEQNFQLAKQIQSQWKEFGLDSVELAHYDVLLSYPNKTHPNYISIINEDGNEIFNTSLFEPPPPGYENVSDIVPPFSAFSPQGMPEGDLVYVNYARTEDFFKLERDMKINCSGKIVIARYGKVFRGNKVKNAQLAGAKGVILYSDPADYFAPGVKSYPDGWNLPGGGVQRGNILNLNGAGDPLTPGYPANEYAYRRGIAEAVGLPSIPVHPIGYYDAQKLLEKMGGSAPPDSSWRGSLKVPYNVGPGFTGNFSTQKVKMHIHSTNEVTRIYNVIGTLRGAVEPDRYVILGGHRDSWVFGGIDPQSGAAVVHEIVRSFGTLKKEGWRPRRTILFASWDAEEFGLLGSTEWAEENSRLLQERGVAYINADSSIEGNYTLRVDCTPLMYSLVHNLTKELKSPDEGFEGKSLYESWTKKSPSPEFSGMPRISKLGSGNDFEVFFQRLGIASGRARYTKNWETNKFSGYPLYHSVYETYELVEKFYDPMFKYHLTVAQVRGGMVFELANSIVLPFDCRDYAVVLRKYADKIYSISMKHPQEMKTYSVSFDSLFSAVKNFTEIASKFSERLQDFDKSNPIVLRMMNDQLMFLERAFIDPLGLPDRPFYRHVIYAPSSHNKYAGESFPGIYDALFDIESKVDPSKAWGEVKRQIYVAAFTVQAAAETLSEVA
Procedure, shortened: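 Competition format: fluorescent tracer PSM-0183 (50 nM) displaced from PSMA on C4-2 cells by a test compound titration over 1 h at 4 °C. Bound tracer was quantified as flow-cytometric AF488 median fluorescence after washing. Four-parameter logistic fits of MFI data gave IC50 and pIC50.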

[2] = target: T2, Fc-fusion protein of human PSMA (hPSMA-Fc) (Homo sapiens, UniProt Q04609); experiment: Surface plasmon resonance assay (Biacore T200, single cycle kinetic); type: binding; conditions: hPSMA-Fc, 25° C., read-out: pKD CAT (converted)
T2 construct: purchased Acro Biosystems PSA-H5264
T2 sequence (Q04609 44-750 limits assumed): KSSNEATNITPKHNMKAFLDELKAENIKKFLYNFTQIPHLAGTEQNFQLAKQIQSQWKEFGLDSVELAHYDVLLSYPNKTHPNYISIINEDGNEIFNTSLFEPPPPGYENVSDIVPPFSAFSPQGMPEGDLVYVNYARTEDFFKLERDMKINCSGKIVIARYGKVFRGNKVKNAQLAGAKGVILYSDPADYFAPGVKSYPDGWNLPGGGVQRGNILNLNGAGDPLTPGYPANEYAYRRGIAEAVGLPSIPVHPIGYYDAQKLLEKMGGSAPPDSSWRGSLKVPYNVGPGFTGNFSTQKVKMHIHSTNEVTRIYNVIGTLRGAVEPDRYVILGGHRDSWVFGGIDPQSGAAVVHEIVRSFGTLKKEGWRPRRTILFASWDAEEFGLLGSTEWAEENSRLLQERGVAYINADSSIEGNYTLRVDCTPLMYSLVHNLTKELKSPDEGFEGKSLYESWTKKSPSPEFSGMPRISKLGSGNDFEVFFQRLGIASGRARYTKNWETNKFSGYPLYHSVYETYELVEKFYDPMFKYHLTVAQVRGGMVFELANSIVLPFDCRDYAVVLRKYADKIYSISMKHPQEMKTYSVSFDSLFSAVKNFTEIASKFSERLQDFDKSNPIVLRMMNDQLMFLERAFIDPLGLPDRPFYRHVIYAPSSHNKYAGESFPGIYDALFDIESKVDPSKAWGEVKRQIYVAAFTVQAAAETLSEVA
Procedure, shortened: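 KD, expressed as pKD, came from 1:1 Langmuir fits of reference- and buffer-blank-subtracted SPR data. The runs were single-cycle kinetics at 25° C in HBST/0.1% DMSO over human PSMA-Fc, captured to ~1000 RU on a peptide-coated CM5 surface and regenerated with 10 mM glycine pH 1.5.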

[3] = pKD category for PSMA SPR activity assay
[4] = FACS binding, competition with 50 nM PSM-0183, category
[5] = SPR, single cycle kinetic, category

Row | SMILES | IC50 ([1]; pIC50 category of FACS binding) [nM] | Kd [2, 3] [nM] | IC50 [1, 4] [nM] | Kd [2, 5] [nM]
1 | CC(C)CC(=O)NC(C)(C)C(=O)N[C@@H](Cc1ccccc1)C(=O)N[C@H]1CSSC[C@@H](C(=O)N[C@H](C(=O)N[C@H](C(N)=O)[C@@H](C)O)C(C)(C)C)NC(=O)[C@H](CC(N)=O)NC(=O)C(C)(C)NC(=O)[C@H](CCCNC(=N)N)NC(=O)[C@H](CCCCN)NC1=O [PSM-0450, Iva-Aib-Phe-[Cys-Lys-Arg-Aib-Asn-Cys]-Tle-Thr-NH2] (Isovaleryl-[Aib]FCKR[Aib]NC[Tle]T-NH2; disulfide 3-8) | < 200 | < 12.6 | – | –
2 | C[C@@H](O)[C@H](NC(=O)[C@@H](NC(=O)[C@@H]1CSSC[C@H](NC(=O)[C@H](Cc2ccccc2)NC(=O)C(C)(C)NC(=O)[C@@H](NC(=O)CCNC(=O)CN2CCN(CC(=O)O)CCN(CC(=O)O)CCN(CC(=O)O)CC2)[C@@H](C)O)C(=O)N[C@@H](CCCCN)C(=O)N[C@@H](CCCNC(=N)N)C(=O)NC(C)(C)C(=O)N[C@@H](CC(N)=O)C(=O)N1)C(C)(C)C)C(N)=O [PSM-0209, DOTA-Bal-Thr-Aib-Phe-[Cys-Lys-Arg-Aib-Asn-Cys]-Tle-Thr-NH2] ({DOTA-βAla}-T[Aib]FCKR[Aib]NC[Tle]T-NH2; disulfide 4-9) | – | – | < 200 | < 12.6
3 | C[C@@H](O)[C@H](NC(=O)[C@@H](NC(=O)[C@@H]1CSSC[C@H](NC(=O)[C@H](Cc2ccccc2)NC(=O)C(C)(C)NC(=O)[C@@H](NC(=O)CCC(=O)NCCCOCCOCCOCCCNC(=O)CN2CCN(CC(=O)O)CCN(CC(=O)O)CCN(CC(=O)O)CC2)[C@@H](C)O)C(=O)N[C@@H](CCCCN)C(=O)N[C@@H](CCCNC(=N)N)C(=O)NC(C)(C)C(=O)N[C@@H](CC(N)=O)C(=O)N1)C(C)(C)C)C(N)=O [PSM-0259, DOTA-Ttds-Thr-Aib-Phe-[Cys-Lys-Arg-Aib-Asn-Cys]-Tle-Thr-NH2] ({X3-Suc}-T[Aib]FCKR[Aib]NC[Tle]T-NH2; disulfide 4-9) | – | – | < 200 | < 12.6
4 | C[C@@H](O)[C@H](NC(=O)[C@@H](NC(=O)[C@@H]1CSSC[C@H](NC(=O)[C@H](Cc2ccc(Cl)cc2)NC(=O)C(C)(C)NC(=O)CC2CCN(C(=O)CN3CCN(CC(=O)O)CCN(CC(=O)O)CCN(CC(=O)O)CC3)CC2)C(=O)N[C@@H](CCCCN)C(=O)N[C@@H](CCCNC(=N)N)C(=O)NC(C)(C)C(=O)N[C@@H](CC(N)=O)C(=O)N1)C(C)(C)C)C(N)=O [PSM-0248, DOTA-Cmp-Aib-Pcf-[Cys-Lys-Arg-Aib-Asn-Cys]-Tle-Thr-NH2] ({DOTA}-[X1][Aib][Phe(4-Cl)]CKR[Aib]NC[Tle]T-NH2; disulfide 4-9) | – | – | < 200 | 12.6 to 126
5 | CNCCCC[C@@H]1NC(=O)[C@@H](NC(=O)[C@H](Cc2c[nH]c3ccc(Br)cc23)NC(=O)C(C)(C)NC(=O)[C@@H](NC(=O)CC2CCN(C(=O)CN3CCN(CC(=O)O)CCN(CC(=O)O)CCN(CC(=O)O)CC3)CC2)[C@@H](C)O)CSSC[C@@H](C(=O)N[C@H](C(=O)N[C@H](C(N)=O)[C@@H](C)O)C(C)(C)C)NC(=O)[C@H](CC(N)=O)NC(=O)C(C)(C)NC(=O)[C@H](CCCNC(=N)NC)NC1=O [PSM-0206, DOTA-Cmp-Thr-Aib-5Brw-[Cys-Lys(Me)-Arg(Me)-Aib-Asn-Cys]-Tle-Thr-NH2] ({DOTA}-[X1]T[Aib][Trp(5-Br)]C[Lys(Me)][Arg(Me)][Aib]NC[Tle]T-NH2; disulfide 5-10) | – | – | 1260 to 3160 | > 501
6 | CCCC[C@@H]1NC(=O)[C@@H](NC(=O)[C@H](Cc2ccc(Cl)cc2)NC(=O)C(C)(C)NC(=O)[C@@H](NC(C)=O)[C@@H](C)O)CSSC[C@@H](C(=O)N[C@H](C(=O)N[C@H](C(N)=O)[C@@H](C)O)C(C)(C)C)NC(=O)[C@H](CC(N)=O)NC(=O)C(C)(C)NC(=O)[C@H](CCC(=O)NC(=N)N)NC1=O [PSM-0236, Ac-Thr-Aib-Pcf-[Cys-Nle-Gln(Gu)-Aib-Asn-Cys]-Tle-Thr-NH2] (Ac-T[Aib][Phe(4-Cl)]C[Nle]E(Guanidino)[Aib]NC[Tle]T-NH2; disulfide 4-9) | – | – | < 200 | < 12.6
7 | CCCCNC(=O)N[C@H](C(=O)NC(C)(C)C(=O)N[C@@H](Cc1ccc(Cl)cc1)C(=O)N[C@H]1CSSC[C@@H](C(=O)N[C@H](C(=O)N[C@H](C(=O)N2CCC(CC(=O)N[C@H](CCCCNC(=O)CN3CCN(CC(=O)O)CCN(CC(=O)O)CCN(CC(=O)O)CC3)C(N)=O)CC2)[C@@H](C)O)C(C)(C)C)NC(=O)[C@H](CC(N)=O)NC(=O)C(C)(C)NC(=O)[C@H](CCCNc2ccccn2)NC(=O)[C@H](CCCCN)NC1=O)[C@@H](C)O [PSM-0427, nBuCAyl-Thr-Aib-Pcf-[Cys-Lys-Opy-Aib-Asn-Cys]-Tle-Thr-Cmp-lys(DOTA)-NH2] ({NHBu-CO}-T[Aib][Phe(4-Cl)]CK[Orn](Pyridin(2-yl))[Aib]NC[Tle]T[X1][dK](DOTA)-NH2; disulfide 4-9) | < 200 | 12.6 to 126 | – | –
